In US9221900B2, “Methods for identifying safe and functional humanized antibodies” (AC IMMUNE S.A., priority 2010, dated 2015):

What was measured:
APP/PS1 mice = experiment: In vivo two-photon imaging of amyloid plaques; design: species or system mouse; details: systemic dosing; tracked over multiple weeks
Experimental: FIG. 11 provides In vivo imaging of Aβ plaques in APP/PS1 mice treated with anti-beta amyloid antibody was performed. Systemic dosing of MABT modulates individual amyloid plaques in vivo. Amyloid plaques in APP/PS1 animals were labeled with Methoxy-X04 injected I.P., visualized by in vivo two-photon microscopy and tracked over multiple weeks (A). The relative change in plaque volume over time plotted as fold-increase from the initial imaging session (B).
Cranial windows were implanted above the somatosensory cortex of 10-month old APP hAPP(V717I)/PS1 mice, as previously described (Trachtenberg et al 2002, Holtmaat et al 2009), 2 weeks before the initial imaging session. Twenty-four hours prior to each imaging session animals were injected with 10 mg/kg Methoxy-X04 I.P. to visualize individual amyloid plaques (Klunk et al 2002) and immediately prior to imaging injected I.V. with AngioSense680 (VisEn Medical) to visualize blood vessels. For each imaging session animals were anesthetized with an isoflurane-oxygen mixture and mounted to the microscope using a head post. Images were collected via a two-photon laser scanning microscope (Ultima in vivo; Prairie Technologies) using a Ti:sapphire laser (MaiTai DeepSee; Spectra Physics) tuned to 820 nm delivering ˜30 mW to the back-focal plane of a 40× NA 0.8 objective lens (Olympus). […]

enriched microglia = experiment: TNFα release by enriched microglia; type: cell-based, rat; details: 24 h of treatment
Experimental: FIG. 6 provides a graph corresponding to the experiments described in Example 6.6. […] The release of TNFα by enriched microglia was measured following 24 h of treatment (see Methods). The mean (±SEM) of three independent experiments is shown. Statistical analysis was done using one-way ANOVA followed by Tukey post-hoc multiple comparison.
To link the increased microglia activity more directly to a downstream pro-inflammatory readout, the TNFα release by primary cell cultures enriched for microglia was measured ([…] Iba1^+, not shown). The release of pro-inflammatory TNFα by enriched microglia when treated with Aβ1-42 oligomers was reduced in the presence of all anti-Aβ monoclonal antibodies tested (FIG. 6). […] Thus, an anti-Aβ IgG4 monoclonal antibody may have a more desirable profile as compared to an anti-Aβ IgG1 monoclonal antibody, combining neuroprotective effects and ability to promote Aβ engulfment by microglia with limited microglial activation.
Rat cortical cultures enriched for microglia (>60% Iba1^+ of total DAPI^+ cells) were treated with 10 μM Aβ1-42 oligomers with or without 100 μg/mL antibodies for 6 h and 24 h. LPS (Sigma) at 1 μg/mL was used as a positive control stimulus. […]

Aβ1-42 = Aβ1-42 (Homo sapiens, UniProt P05067); experiment: Aβ1-42 self-assembly assay not relying on ThT fluorescence; type: biochemical; details: labeled Aβ1-42 onto immobilized un-labeled Aβ1-42
Chain of Aβ1-42 (P05067 672-713 limits assumed): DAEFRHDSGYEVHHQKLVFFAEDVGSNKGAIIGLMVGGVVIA

[1] = system: amyloid plaques in human AD brain sections; experiment: Immunohistochemistry of amyloid plaques in human AD brain sections; type: binding
Description: Paraffin mounted temporal lobe brain sections (20 μm) from an AD patient and from an age-matched non-AD control (Tissue Solutions, Clydebank, UK) were used for immunohistochemistry staining. […] A goat-anti-human biotinylated IgG was used as a secondary antibody. Staining was done with diaminobenzidin (Dako, Glostrup, Denmark) and mounting using Eukitt mounting medium. Images were acquired on a LSM 700 inverted microscope from Zeiss.

[2] = system: mixed cortical cells from P1 rats; experiment: Immunofluorescence of Aβ1-42 oligomer binding to neurons; type: cell-based, rat; details: co-treatment, 30 min to 18 h
Experimental: FIG. 3 provides graphs and immunocytochemical images corresponding to the experiments described in Example 6.4. Aβ1-42 oligomer binding to neurites was reduced by the anti-Aβ IgG4 monoclonal antibody. […] Green indicates staining with TuJ1, red indicates labeling with anti-Aβ (clone 6E10), and blue indicates staining with DAPI. […] Quantitative measures of fluorescence are shown for 30 min treatment and 18 h treatment (B). Mean results (±SEM) of two experiments are shown. […] Cortical cultures from P1 rats were treated as described for (A), except that Aβ1-42 tagged with HyLite Fluor-488 was used (C). Aβ1-42-labeled samples are shown in the upper panel and DAPI-stained samples are shown in the lower panel. One representative experiment is shown. Aβ1-42 fluorescence was quantified, with the mean (±SD) of the two independent experiments shown (D). […]
Aβ peptides, especially aggregation intermediates (Bateman et al., 2007), are known to associate with various lipids and proteins present in cell membranes. […] This effect was readily apparent as early as 30 min (FIGS. 3A and 3B) and remained for at least 18 h of treatment (FIG. 3B).
Cells were grown on a glass coverslips. […] Fluorescence intensity was measured in cell bodies delineated by saturated epifluorescence pictures. […]

For “MABT: humanized anti-Aβ monoclonal antibody of IgG4 isotype, affinity matured and humanized form of mouse mMABT”, the individual plaque volume (APP/PS1 mice) was “decreased in volume”, the “release of TNFα by enriched microglia treated with Aβ1-42 oligomers” value (enriched microglia) was “greatest effect” and the Aβ1-42 self-assembly (Aβ1-42) was “prevented the self-assembly of Aβ1-42 in a dose-dependent manner”. For the same substance, the “binding to amyloid plaques” value [1] was “immunodecorated” and the “interaction of Aβ1-42 oligomers with neurons” value [2] was “blocked the interaction of Aβ1-42 oligomers with neurons”.
